Tests used:
human NaV1.6 [1] = target: T1, human NaV1.6 (Homo sapiens, UniProt Q9UQD0); test: Peak INa tonic block (TB), PatchXpress patch clamp; type: cell-based; conditions: for IC50: hNaV1.6, 0.1 Hz, resting state
T1 construct: stably expressing either human NaV1.6 (NP_055006); expressed in transfected cells
Experimental: (§1) HEK-293 cell lines stably expressing either human NaV1.6 (NP_055006), mouse NaV1.6 (NP_035453.2), or rat NaV1.6 (NP_062139) were used. All cells were seeded at 2×10^6 cells per Nunc T75 flask for 2 days in culture. At time of harvest for assays, the cell counts were approximately 6×10^6 cells. Cells were washed (1×) in DPBS (Hyclone, Cat #SH30028.03) for approximately 30 seconds. 1 mL of 1×0.05% Trypsin-EDTA (GIBCO Cat #25300-054) was added and swirled around to cover the bottom of the flask and was allowed to sit on the cells for approximately 4 minutes (±90% of the cells were lifted by light tapping of the flask). 10 mL of warmed media (DMEM high glucose media Hyclone, SH30022.02 supplemented with 10% Fetal Bovine Serum, 2 mM Sodium Pyruvate, 10 mM HEPES and 400 μg/mL G418) was added to inactivate the trypsin. Cells were triturated until a single cell suspension was achieved. A cell count was performed and cells were aliquoted into a 250 ml centrifuge tube at a concentration of 2×10^5/mL in +30 ml of prewarmed media. The 250 mL centrifuge tube was placed on a rocker in an incubator set at 28° C. and gently rocked for approximately 1 hour to allow cells to recover. Cell aliquots of 5 mL (1×10^6 cells) were placed in a 15 mL centrifuge tube and spun at 100×g for 2 minutes. Supernatant was removed leaving a cell pellet. 100 μL of external recording solution was added to the pellet and triturated 20 times to achieve a single cell suspension and then transferred to a 1.5 mL tube for placement in the PatchXpress® (Molecular Devices).
(§2) Compound 1 was provided as powder and prepared as 10 mM DMSO stocks in 1 dram glass vials prior to assay. Immediately prior to assay, Compound 1 was diluted with DMSO to 300×, the designated final assay concentration. Assay dilutions (1× concentration) were prepared by pipetting 3 μL of diluted Compound 1 into 897 μL of extracellular solution in a 1 mL glass shell vial. Vials were capped and vortexed until initiation of the PatchXpress® (Molecular Devices) recording protocol.
(§3) The same intracellular recording solution was used for the persistent and peak INa assays, which contained: 135 mM CsF, 10 mM CsCl, 5 mM NaCl, 10 mM HEPES, 5 mM EGTA at a pH of 7.4 (adjusted with CsOH) and a measured osmolarity of 298 mOsm (adjusted with mannitol). For the persistent INa assay, the external recording solution contained: 135 mM NaCl, 5.4 mM KCl, 5 mM glucose, 2 mM CaCl2), 1 mM MgCl2, 10 mM HEPES, and 200 nM ATX-II (sea anemone toxin, Alomone Labs; Jerusalem, Israel) at a pH of 7.4 (adjusted with NaOH) and a measured osmolarity of 300 mOsm (adjusted with mannitol). For the peak INa assays, the external recording solution contained: 100 mM NaCl, 35 mM NMDG, 5.4 mM KCl, 5 mM glucose, 2 mM CaCl2), 1 mM MgCl2, and 10 mM HEPES at a pH of 7.4 (adjusted with NaOH) and a measured osmolarity of 300 mOsm (adjusted with mannitol).
(§4) All studies were performed using the PatchXpress® (Molecular Devices) automated patch clamp platform (Molecular Devices) using the whole cell configuration. Recordings were performed at room temperature. Data were collected using Patch Commander software (Molecular Devices) and processed using DataXpress 2.0 (Molecular Devices). Cell acceptance criteria were continuously monitored by custom scripts during the recording. Acceptance criteria for all assays were: baseline peak INa>800 pA, Rseal>200 MΩ, and, where appropriate, persistent INa>100 pA. Compensation was 50% and leak subtraction was not used. Currents were filtered at 5 kHz and digitized at 32.5 kHz. Raccess and Rseal were monitored throughout the recording and cells with Raccess>10 MΩ or Rseal<200 MΩ were terminated automatically by script.
Tonic Block (TB): Tonic Block (TB) protocols used low stimulation rates (about 0.1 Hz) and negative potentials (−120 mV) to keep channels in closed (resting) states. Pharmacology was measured during peak INa in response to step to 0 mV. No leak subtraction was used.

human NaV1.6 [2] = target: T1, human NaV1.6; test: ATX-II activated late (persistent) INa block, PatchXpress patch clamp; type: cell-based; conditions: for IC50: hNaV1.6, ATX-II-evoked, holding −120 mV
Experimental: as §1, §2, §3, §4
Late (persistent) current Block: The inhibition of ATX-II activated late current was measured using a 200 ms voltage step to 0 mV. Protocols used low stimulation rates (about 0.1 Hz) and negative potentials (−120 mV) to keep channels in closed (resting) states.

human NaV1.6 [3] = target: T1, human NaV1.6; test: Peak INa voltage-dependent block (VDB), PatchXpress patch clamp; type: cell-based; conditions: for Ratio to Pers. INa (Peak INa VDB / persistent INa): hNaV1.6; for IC50: hNaV1.6, half-inactivated (V1/2)
Experimental: as §1, §2, §3, §4
Voltage Dependent Block (VDB): VDB protocols used a depolarized voltage to keep channels in half-inactivated (resting) states. This allowed equilibrium binding and accurate determination of isoform selectivity (in the absence of biological features).

human NaV1.6 [4] = target: T1, human NaV1.6; test: Peak INa use-dependent block (UDB-10 Hz), PatchXpress patch clamp; type: cell-based
[5] = in vivo
From the text: (§5) This was a 2-part randomized, placebo-controlled Phase 1 trial in healthy participants aged 18-55 years. […] PD effects were examined on quantitative EEG (qEEG; resting and vigilant conditions) and stimulated EEG using auditory steady state response (ASSR). A total of 48 participants were enrolled; Part A, n=30; Part B, n=18.

male CD-1 mice [6] = test: Maximal electroshock induced seizure (MES) test; type: in vivo, mouse; conditions: for protection (increase in latency) against MES-induced tonic hindlimb seizures, dose-response: Compound 1 0.3-10 mg/kg po; for ED50: mouse MES, read-out: Efficacy (MES) ED50, increasing latency to tonic extension seizures
Experimental: Food and water were available ad libitum.
VPA was prepared in saline (Vehicle 1). All solutions were protected from light. All compounds and vehicles were dosed at 10 ml/kg.
The MES test was carried out over two days with 6 of 12 mice from each treatment group being tested on each day. Mice were brought to the test room at least one hour before the start of the experiment.
A Grass S88x (Grass Technologies of Astro-Med, Inc., West Warwick, RI) Stimulus Isolation Unit (A385, WPI Inc., USA) was set to deliver a 50 mA square-wave stimulus, with a 0.8 second duration, a pulse width of 10 msec, and a frequency of 50 Hz. A pair of custom stainless steel electrodes were soaked in 0.2% Agar, and then the subject received bilateral transauricular stimulation through ear-clip electrodes. During the stimulation, mice were manually restrained. They were then released into the observation cage for convulsion observation for 60 seconds immediately after stimulation. Each mouse was observed continuously by individuals blinded to treatment conditions and results were recorded.
Anti-seizure assessment endpoints were: (1) latency of hindlimb tonic flexion; (2) latency of hindlimb tonic extension; (3) total #hindlimb tonic flexions; (4) total #hindlimb tonic extensions; (5) latency to death; and (6) mortality rate
From these fitted curves, ED50 and EC50 values were calculated.

male CD-1 mice [7] = test: Spontaneous locomotor activity (sLMA) test; conditions: for sLMA distance moved, dose-response: Compound 1 10-40 mg/kg po; for Tolerability (sLMA) TD50: dose reducing sLMA by 50%
Experimental: Male CD-1 mice, 6-weeks old, were obtained from Vital River (Beijing, China). The average body weight was 25-35 g at the time the experiments were carried out. The mice were housed in groups of 3-5 under controlled conditions (temperature: 20-26° C.; humidity: 40-70%; air exchange rate: 10-15 cycles/hour; 12:12 light-dark cycle with lights on at 5:00 a.m.). Food and water were available ad libitum. The mice were acclimated to these conditions for 6 days before the start of the studies.
Dosing solutions were prepared on each experiment day. […] All solutions were protected from light. Samples from dosing solutions were stored at 4° C. Both compound and vehicle were dosed at 10 ml/kg.
The sLMA test was carried out over two days. 5 of 10 mice from each treatment group were tested on each day. All animals were marked on the tail with a permanent marker and weighed. Mice were randomly assigned into one of the four treatment groups. Animals were acclimated to the test room at least 30 minutes before the start of the experiment.
Possible side effects, such as overt sedation, were recorded just before the start of the sLMA test.
Each mouse was automatically tracked with overhead cameras using a 1-minute sampling window in an isolated chamber. Spontaneous locomotor activity was then analyzed offline using the Animal Behavior Video Tracking Analysis System (Ji Liang Software Technology Co., Ltd., Shanghai, China).
Locomotor status was defined as >2 mm of movement in every 200 ms (Frame-rate recorded was 20 frames/second. Locomotor status was identified in every 4 frame-to-frame interval. The accumulated shift of tracking spots that exceeded 2 mm in every 4 frame intervals was identified as a locomotor epoch). Traveling distance was calculated automatically from all the locomotion epochs and analyzed.
All mice were anesthetized with CO2. Then, terminal plasma and brain tissue samples were collected from animals in the drug treatment groups. 500 μL whole blood was collected via cardiac puncture and placed in tubes with 10 μL EDTAK2. The tubes were then placed in wet ice until centrifuged at 2000 g for 5 minutes at 4° C. The supernatant plasma was pipetted into Eppendorf tubes.
All statistical analyses were conducted using GraphPad Prism 7.0. Data are presented as mean±s.e.m., and p<0.05 was regarded as statistically significant.
Dose-response and concentration-response curves for plasma and brain were fitted for each end-point using GraphPad Prism. From these fitted curves, TD50 and TC50 values were calculated.

healthy participants = test: 2-part Phase 1 trial (28 days; OXC combination): safety and tolerability; type: in vivo, human; conditions: Part B, per arm
From the text: as §5

T1 sequence (Q9UQD0 whole entry): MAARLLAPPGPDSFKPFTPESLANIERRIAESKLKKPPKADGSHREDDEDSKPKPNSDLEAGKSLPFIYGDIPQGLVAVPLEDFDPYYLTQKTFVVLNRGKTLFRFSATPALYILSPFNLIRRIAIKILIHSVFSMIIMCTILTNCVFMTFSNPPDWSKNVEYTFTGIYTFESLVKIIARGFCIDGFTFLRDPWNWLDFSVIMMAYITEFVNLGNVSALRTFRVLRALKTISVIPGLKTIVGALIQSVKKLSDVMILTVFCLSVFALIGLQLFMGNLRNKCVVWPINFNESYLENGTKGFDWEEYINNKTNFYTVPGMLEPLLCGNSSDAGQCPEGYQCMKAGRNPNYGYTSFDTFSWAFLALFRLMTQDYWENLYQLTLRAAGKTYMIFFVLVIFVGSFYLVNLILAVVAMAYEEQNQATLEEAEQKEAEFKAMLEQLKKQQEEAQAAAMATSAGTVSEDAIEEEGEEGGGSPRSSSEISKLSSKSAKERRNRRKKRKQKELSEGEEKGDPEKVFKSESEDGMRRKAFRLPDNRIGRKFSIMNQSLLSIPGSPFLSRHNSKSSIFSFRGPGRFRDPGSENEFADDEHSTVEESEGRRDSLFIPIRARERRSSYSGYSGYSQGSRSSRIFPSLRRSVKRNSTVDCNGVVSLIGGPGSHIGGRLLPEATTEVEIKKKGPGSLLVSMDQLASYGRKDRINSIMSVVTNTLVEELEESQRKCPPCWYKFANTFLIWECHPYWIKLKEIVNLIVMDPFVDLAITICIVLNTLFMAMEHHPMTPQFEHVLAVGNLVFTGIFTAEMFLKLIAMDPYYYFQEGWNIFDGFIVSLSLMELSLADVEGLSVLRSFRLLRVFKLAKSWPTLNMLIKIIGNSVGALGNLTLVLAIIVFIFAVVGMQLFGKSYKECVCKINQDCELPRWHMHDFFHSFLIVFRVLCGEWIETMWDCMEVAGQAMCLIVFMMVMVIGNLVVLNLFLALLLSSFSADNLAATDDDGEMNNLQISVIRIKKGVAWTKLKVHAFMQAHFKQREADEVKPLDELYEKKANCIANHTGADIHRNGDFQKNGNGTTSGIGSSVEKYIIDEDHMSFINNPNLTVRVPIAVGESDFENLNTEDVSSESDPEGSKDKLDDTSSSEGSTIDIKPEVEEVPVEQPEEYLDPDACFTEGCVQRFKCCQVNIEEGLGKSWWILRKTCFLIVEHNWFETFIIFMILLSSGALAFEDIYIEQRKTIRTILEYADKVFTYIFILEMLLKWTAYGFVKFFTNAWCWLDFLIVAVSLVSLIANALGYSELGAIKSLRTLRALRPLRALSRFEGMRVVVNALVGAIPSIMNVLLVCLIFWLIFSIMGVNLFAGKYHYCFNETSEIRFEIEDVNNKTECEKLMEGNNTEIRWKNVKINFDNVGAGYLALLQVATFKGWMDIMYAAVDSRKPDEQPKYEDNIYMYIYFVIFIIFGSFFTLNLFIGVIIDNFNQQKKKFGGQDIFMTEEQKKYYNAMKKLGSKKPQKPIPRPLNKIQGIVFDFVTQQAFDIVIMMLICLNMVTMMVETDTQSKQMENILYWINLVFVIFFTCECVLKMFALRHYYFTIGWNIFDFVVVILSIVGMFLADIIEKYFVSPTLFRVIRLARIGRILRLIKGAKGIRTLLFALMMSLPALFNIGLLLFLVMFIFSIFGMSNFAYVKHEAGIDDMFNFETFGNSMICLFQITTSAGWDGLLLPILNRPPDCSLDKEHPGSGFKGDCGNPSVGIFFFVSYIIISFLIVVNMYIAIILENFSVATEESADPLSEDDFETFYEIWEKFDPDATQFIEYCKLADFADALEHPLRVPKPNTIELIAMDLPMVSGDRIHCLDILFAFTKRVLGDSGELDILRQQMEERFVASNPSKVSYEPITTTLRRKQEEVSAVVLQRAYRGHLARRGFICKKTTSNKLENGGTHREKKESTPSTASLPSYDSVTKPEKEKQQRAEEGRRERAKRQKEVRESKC

Structure (SMILES): NC(=O)O[C@@H](Cn1ncnn1)c1ccccc1Cl [Cenobamate]
- Ratio to Pers. INa (Peak INa TB / persistent INa) (human NaV1.6 [1]; hNaV1.6): 24
- IC50 (human NaV1.6 [1]): 1720 µM
- IC50 (human NaV1.6 [2]): 71.7 µM
- Ratio to Pers. INa (Peak INa VDB / persistent INa) (human NaV1.6 [3]): 0.9
- IC50 (human NaV1.6 [3]): 66.7 µM
- Ratio to Peak INa (TB) (UDB-10 Hz) (human NaV1.6 [4]; hNaV1.6): 2.3
- Ratio to Pers. INa (Peak INa UDB-10 Hz / persistent INa) (human NaV1.6 [4]; hNaV1.6): 11
- IC50 (human NaV1.6 [4]; hNaV1.6, 10 Hz): 749 µM

Structure (SMILES): NC(=O)N1c2ccccc2CC(O)c2ccccc21 (stereo not shown) [10-Hydroxycarbamezapine]
- exposure when administered concomitantly with Compound 1 vs alone [5]: appeared to be similar

Structure (SMILES): NC(=O)N1c2ccccc2C=Cc2ccccc21 [Carbamazepine, reference compound]
- mice protected against MES-induced tonic hindlimb seizures (male CD-1 mice [6]; CBZ 30 mg/kg): all mice
- protection (increase in latency) against MES-induced tonic hindlimb seizures, dose-response (male CD-1 mice [6]): dose-dependent protection
- ED50 (male CD-1 mice [6]): 5 mg/kg
- IC50 (human NaV1.6 [1]): 2310 µM
- IC50 (human NaV1.6 [2]): 77.5 µM
- sLMA at the dose required for complete seizure prevention (male CD-1 mice [7]; CBZ): significant reduction
- sLMA distance moved, dose-response (male CD-1 mice [7]): dose-dependent reductions
- PI (Brain) (male CD-1 mice [7]; brain TC50 (sLMA) / brain EC50 (MES), free concentrations): 5.9
- Tolerability (sLMA) TD50 (male CD-1 mice [7]): 37.6 mg/kg
- PI (Plasma) (male CD-1 mice [7]; plasma TC50 (sLMA) / plasma EC50 (MES), free concentrations): 3.4
- IC50 (human NaV1.6 [3]): 44.4 µM
- IC50 (human NaV1.6 [4]; hNaV1.6, 10 Hz): 1420 µM
- use-dependent block at stimulation frequency of 10 Hz (human NaV1.6 [4]; hNaV1.6, 10 Hz): not observed
- use-dependent block at increased frequencies (human NaV1.6 [4]; hNaV1.6, 10 Hz, 30 Hz or 50 Hz): could be observed

Structure (SMILES): NC(=O)N1c2ccccc2CC(=O)c2ccccc21 [Oxcarbazepine]
- Ratio to Pers. INa (Peak INa TB / persistent INa) (human NaV1.6 [1]; hNaV1.6): 8
- IC50 (human NaV1.6 [1]): 1040 µM
- IC50 (human NaV1.6 [2]): 124 µM
- patients in whom TEAEs were observed (number) (healthy participants): 3
- patients in whom TEAEs were observed (percent) (healthy participants): 75%
- Ratio to Pers. INa (Peak INa VDB / persistent INa) (human NaV1.6 [3]): 0.3
- IC50 (human NaV1.6 [3]): 42 µM
- exposure when administered concomitantly with Compound 1 vs alone [5]: appeared to be similar

Structure (SMILES): CCCC(CCC)C(=O)O [Valproic acid]
- inhibition at 1000 µM (human NaV1.6 [1]; hNaV1.6, 1 mM): 11%
- inhibition at 1000 µM (human NaV1.6 [2]; hNaV1.6, 1 mM): 2%
- inhibition at 1000 µM (human NaV1.6 [4]; hNaV1.6, 1 mM): 8%

Structure (SMILES): Nc1nnc(-c2cccc(Cl)c2Cl)c(N)n1 [Lamotrigine, reference compound]
- protection (increase in latency) against MES-induced tonic hindlimb seizures, dose-response (male CD-1 mice [6]): dose-dependent protection
- mice protected against MES-induced tonic hindlimb seizures (male CD-1 mice [6]; LTG 10 mg/kg, highest dose tested): eight of 12
- ED50 (male CD-1 mice [6]): 3.4 mg/kg
- sLMA distance moved, dose-response (male CD-1 mice [7]): dose-dependent reductions
- Tolerability (sLMA) TD50 (male CD-1 mice [7]): 26.5 mg/kg

Structure (SMILES): O=C1NC(=O)C(c2ccccc2)(c2ccccc2)N1 [Phenytoin]
- IC50 (human NaV1.6 [2]): 59.8 µM
- Ratio to Pers. INa (Peak INa VDB / persistent INa) (human NaV1.6 [3]): 0.8
- IC50 (human NaV1.6 [3]): 47.8 µM
- Ratio to Pers. INa (Peak INa UDB-10 Hz / persistent INa) (human NaV1.6 [4]; hNaV1.6): 15
- IC50 (human NaV1.6 [4]; hNaV1.6, 10 Hz): 877 µM

Structure (SMILES): COC[C@@H](NC(C)=O)C(=O)NCc1ccccc1 [Lacosamide]
- IC50 (human NaV1.6 [2]): 833 µM
- Ratio to Pers. INa (Peak INa VDB / persistent INa) (human NaV1.6 [3]): 0.3
- IC50 (human NaV1.6 [3]): 269 µM
- Ratio to Pers. INa (Peak INa UDB-10 Hz / persistent INa) (human NaV1.6 [4]; hNaV1.6): 0.8
- IC50 (human NaV1.6 [4]; hNaV1.6, 10 Hz): 682 µM
